Measurements taken from patent publication US20140000886A1, “PETROLEUM RECOVERY PROCESS AND SYSTEM” (Shell Oil Company, priority 2012, published 2014).

Assay: Oil recovery from formation core by brine displacement followed by DMS displacement
Conditions: after waterflooding with a brine solution
Procedure: Incremental recovery of oil from a formation core using an oil recovery formulation consisting of dimethyl sulfide following oil recovery from the core by water-flooding was measured to evaluate the effectiveness of DMS as a tertiary oil recovery agent.
Two 5.02 cm long Berea sandstone cores with a core diameter of 3.78 cm and a permeability between 925 and 1325 mD were saturated with a brine having a composition as set forth in Table 7.
After saturation of the cores with brine, the brine was displaced by a Middle Eastern Asphaltic crude oil having the characteristics as set forth above in Table 3 to saturate the cores with oil.
Oil was recovered from each oil saturated core by the addition of brine to the core under pressure and by subsequent addition of DMS to the core under pressure. Each core was treated as follows to determine the amount of oil recovered from the core by addition of brine followed by addition of DMS. Oil was initially displaced from the core by addition of brine to the core under pressure. A confining pressure of 1 MPa was applied to the core during addition of the brine, and the flow rate of brine to the core was set at 0.05 ml/min. The core was maintained at a temperature of 50° C. during displacement of oil from the core with brine. […]

CSC [Dimethyl Sulfide, dimethyl sulfide]
Oil recovered, of the oil remaining in the core after the waterflood: approximately 60%
